The record followed here is ChEMBL document CHEMBL4376816, “Discovery of the Oral Leukotriene C4 Synthase Inhibitor (1S,2S)-2-({5-[(5-Chloro-2,4-difluorophenyl)(2-fluoro-2-methylpropyl)amino]-3-methoxypyrazin-2-yl}carbonyl)cyclopropanecarboxylic Acid (AZD9898) as a New Treatment for Asthma” (J Med Chem, 2019).

The source made the active and inactive calls. The calls are words filed in the database; no cut-off is given here.

One data set deals with T1, Cytochrome P450 1A2 (Homo sapiens, UniProt P05177).
T1 sequence (P05177 whole entry): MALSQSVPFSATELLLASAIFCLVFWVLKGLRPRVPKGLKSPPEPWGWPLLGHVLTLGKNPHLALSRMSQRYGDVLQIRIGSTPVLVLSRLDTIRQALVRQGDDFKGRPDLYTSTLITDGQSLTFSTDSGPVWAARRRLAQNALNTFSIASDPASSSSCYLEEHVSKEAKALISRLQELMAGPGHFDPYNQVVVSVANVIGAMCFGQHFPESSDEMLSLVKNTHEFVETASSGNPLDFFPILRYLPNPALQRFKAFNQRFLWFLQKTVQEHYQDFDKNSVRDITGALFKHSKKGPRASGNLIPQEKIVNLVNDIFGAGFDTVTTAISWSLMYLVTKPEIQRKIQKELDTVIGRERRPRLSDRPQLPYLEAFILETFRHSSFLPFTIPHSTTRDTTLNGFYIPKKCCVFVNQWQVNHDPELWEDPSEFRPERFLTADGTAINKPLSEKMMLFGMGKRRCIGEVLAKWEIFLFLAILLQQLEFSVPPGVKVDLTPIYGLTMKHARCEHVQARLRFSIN
Briefly: Inhibition of recombinant human CYP1A2 using coumarin based substrate by fluorescence assay. The class given is ADME.

For data set [1], the system named is Blood. Briefly: Preservation of LXA4 level in calcium ionophore A23187-stimulated asthmatic human whole blood preincubated for 30 mins followed by calcium ionophore A23187 stimulation and measured after 60 mins by LC-MS analysis. Format: functional, tissue-based.
Data set [2] in a line: AUC in po dosed rat at NOAEL measured after 7 days. The class given is ADME, organism-based. To be noted: in vivo.
A short description of data set [3]: Oral bioavailability in cynomolgus monkey at 2 mg/kg after 48 hrs. The class given is ADME, organism-based, Macaca fascicularis. Particulars: in vivo.
Another data set concerns the target Cytochrome P450 2C19 (Homo sapiens, UniProt P33261). Briefly: Inhibition of recombinant human CYP2C19 using coumarin based substrate by fluorescence assay. The class given is ADME.
Data set [4] is described as follows: Cmax in po dosed rat at NOAEL measured after 7 days. Also on record: route oral. The class given is ADME, organism-based. To be noted: in vivo.
In data set [5] the target is Voltage-dependent L-type calcium channel subunit alpha-1C (Homo sapiens, UniProt Q13936). Briefly: Inhibition of human Cav1.2 expressed in CHOK1 cells at < 33 uM at -65 mV holding potential by Ionwork-based analysis. Format: cell-based.
Data set [6] addresses T2, A-type voltage-gated potassium channel KCND3 (Homo sapiens, UniProt Q9UK17).
T2 sequence (Q9UK17 whole entry): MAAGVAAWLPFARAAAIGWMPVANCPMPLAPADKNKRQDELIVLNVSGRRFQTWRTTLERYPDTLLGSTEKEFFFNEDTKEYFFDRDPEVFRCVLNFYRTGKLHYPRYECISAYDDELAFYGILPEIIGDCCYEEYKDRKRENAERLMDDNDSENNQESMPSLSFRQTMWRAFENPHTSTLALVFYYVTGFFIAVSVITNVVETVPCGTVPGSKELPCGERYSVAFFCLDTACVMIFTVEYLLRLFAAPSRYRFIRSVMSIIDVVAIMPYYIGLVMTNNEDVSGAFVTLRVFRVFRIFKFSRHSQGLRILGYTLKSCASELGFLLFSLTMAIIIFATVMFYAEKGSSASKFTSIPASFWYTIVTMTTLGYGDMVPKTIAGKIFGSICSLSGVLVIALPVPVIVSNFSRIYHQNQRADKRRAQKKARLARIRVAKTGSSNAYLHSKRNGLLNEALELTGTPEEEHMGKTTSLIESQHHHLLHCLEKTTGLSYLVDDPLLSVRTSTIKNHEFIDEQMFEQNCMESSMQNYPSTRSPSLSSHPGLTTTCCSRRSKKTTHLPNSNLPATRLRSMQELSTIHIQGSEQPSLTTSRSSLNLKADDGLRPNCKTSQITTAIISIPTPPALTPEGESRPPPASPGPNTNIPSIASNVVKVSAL
Briefly: Inhibition of human Kv4.3 expressed in CHOK1 cells at < 33 uM at -80 mV holding potential by Ionwork-based analysis. The class given is cell-based.

The subject of another data set is Rattus norvegicus. Briefly: In vivo inhibition of LTC4S in po dosed Sprague-Dawley rat assessed as unbound drug concentration required for inhibition of calcium ionophore A23187-induced cysteinyl leukotrienes production in BAL fluid by LC-MS/MS analysis. The class given is functional.
Data set [7] can be described thus: Apparent permeability across apical to basolateral side in human Caco2 cells. Particulars: Caco-2.
The nature of data set [8]: Oral bioavailability in Beagle dog at 2 mg/kg via gavage after 48 hrs. The class given is ADME, organism-based, Canis lupus familiaris. Particulars: in vivo.
The nature of data set [9]: Volume of distribution at steady state in Beagle dog at 1 mg/kg, iv infusion or 2 mg/kg, po via gavage after 48 hrs. Particulars: in vivo, read-out: Vdss. Format: ADME, organism-based, Canis lupus familiaris.
Data set [10] in a line: Clearance in Beagle dog at 1 mg/kg, iv infusion or 2 mg/kg, po via gavage after 48 hrs. Particulars: in vivo. Format: ADME, organism-based, Canis lupus familiaris.
Data set [11] can be described thus: Toxicity in rat assessed as liver hypertrophy at 100 mg/kg, po after 7 days. Format: organism-based. Particulars: in vivo.
Data set [12] addresses T3, A-type potassium channel modulatory protein KCNIP2 (Homo sapiens) (UniProt Q9NS61).
T3 sequence (whole entry): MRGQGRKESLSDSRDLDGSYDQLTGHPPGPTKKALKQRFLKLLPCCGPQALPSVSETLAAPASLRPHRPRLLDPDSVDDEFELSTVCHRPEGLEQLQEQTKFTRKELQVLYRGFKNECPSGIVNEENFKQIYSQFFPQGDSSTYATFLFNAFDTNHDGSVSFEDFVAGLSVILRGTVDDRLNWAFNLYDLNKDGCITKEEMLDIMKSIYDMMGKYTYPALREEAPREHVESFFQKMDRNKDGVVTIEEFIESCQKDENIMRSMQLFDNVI
Briefly: Inhibition of human KvChIP2 expressed in CHOK1 cells at < 33 uM at -90 mV holding potential by Ionwork-based analysis. Format: cell-based.

Data set [13] addresses T4, Leukotriene C4 synthase (Homo sapiens) (UniProt Q16873).
T4 sequence (whole entry): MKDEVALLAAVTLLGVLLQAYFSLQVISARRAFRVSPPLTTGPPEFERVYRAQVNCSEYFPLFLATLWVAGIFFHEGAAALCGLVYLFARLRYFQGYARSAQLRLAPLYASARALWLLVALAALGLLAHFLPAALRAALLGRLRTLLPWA
Briefly: Inhibition of LTC4S in asthmatic human whole blood assessed as inhibition of calcium ionophore A23187 stimulated cysteinyl leukotrienes production preincuabted for 30 mins followed by calcium ionophore stimulation and measured after 10 mins by LC-MS analysis. Format: tissue-based.

Data set [14] addresses T4, Leukotriene C4 synthase (Homo sapiens). Briefly: Inhibition of LTC4S in healthy human whole blood assessed as inhibition of calcium ionophore A23187 stimulated cysteinyl leukotrienes production preincuabted for 30 mins followed by calcium ionophore stimulation and measured after 10 mins by LC-MS analysis. Format: tissue-based.
Data set [15] is described as follows: Effective half life in Beagle dog at 1 mg/kg, iv infusion or 2 mg/kg, po via gavage after 48 hrs. Format: ADME, organism-based, Canis lupus familiaris. To be noted: in vivo, read-out: t1/2eff (converted).
Data set [16] in a line: Fraction unbound in Sprague-Dawley rat plasma by equilibrium dialysis based LC-MS analysis. Format: ADME, cell-free. (In equilibrium dialysis free small molecules cross a membrane that holds back macromolecules.)
The test system of data set [17] is Blood. Briefly: Effect on arachidonic acid pathway in calcium ionophore A23187-stimulated asthmatic human whole blood assessed as increase in lipoxin level preincubated for 30 mins followed by calcium ionophore A23187 stimulation and measured after 60 mins by LC-MS analysis. The class given is functional, tissue-based.
The nature of data set [18]: Clearance in Han Wistar rat at 0.5 mg/kg, iv or 1 mg/kg, po after 24 hrs. Format: ADME, organism-based. Particulars: in vivo.

Chain of Cytochrome P450 2C19 (P33261 whole entry): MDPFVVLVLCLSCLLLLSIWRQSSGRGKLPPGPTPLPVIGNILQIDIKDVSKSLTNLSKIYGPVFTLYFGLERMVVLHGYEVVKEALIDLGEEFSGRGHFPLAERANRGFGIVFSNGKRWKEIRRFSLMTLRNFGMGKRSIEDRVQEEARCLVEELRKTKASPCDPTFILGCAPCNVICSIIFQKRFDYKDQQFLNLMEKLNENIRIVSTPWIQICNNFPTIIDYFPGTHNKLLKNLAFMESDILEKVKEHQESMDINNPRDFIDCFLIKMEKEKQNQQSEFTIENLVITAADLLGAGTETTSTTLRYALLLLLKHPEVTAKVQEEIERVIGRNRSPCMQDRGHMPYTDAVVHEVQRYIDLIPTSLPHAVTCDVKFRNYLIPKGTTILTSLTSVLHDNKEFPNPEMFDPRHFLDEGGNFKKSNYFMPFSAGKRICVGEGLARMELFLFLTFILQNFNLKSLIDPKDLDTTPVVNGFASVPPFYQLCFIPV
Chain of Voltage-dependent L-type calcium channel subunit alpha-1C (Q13936 whole entry): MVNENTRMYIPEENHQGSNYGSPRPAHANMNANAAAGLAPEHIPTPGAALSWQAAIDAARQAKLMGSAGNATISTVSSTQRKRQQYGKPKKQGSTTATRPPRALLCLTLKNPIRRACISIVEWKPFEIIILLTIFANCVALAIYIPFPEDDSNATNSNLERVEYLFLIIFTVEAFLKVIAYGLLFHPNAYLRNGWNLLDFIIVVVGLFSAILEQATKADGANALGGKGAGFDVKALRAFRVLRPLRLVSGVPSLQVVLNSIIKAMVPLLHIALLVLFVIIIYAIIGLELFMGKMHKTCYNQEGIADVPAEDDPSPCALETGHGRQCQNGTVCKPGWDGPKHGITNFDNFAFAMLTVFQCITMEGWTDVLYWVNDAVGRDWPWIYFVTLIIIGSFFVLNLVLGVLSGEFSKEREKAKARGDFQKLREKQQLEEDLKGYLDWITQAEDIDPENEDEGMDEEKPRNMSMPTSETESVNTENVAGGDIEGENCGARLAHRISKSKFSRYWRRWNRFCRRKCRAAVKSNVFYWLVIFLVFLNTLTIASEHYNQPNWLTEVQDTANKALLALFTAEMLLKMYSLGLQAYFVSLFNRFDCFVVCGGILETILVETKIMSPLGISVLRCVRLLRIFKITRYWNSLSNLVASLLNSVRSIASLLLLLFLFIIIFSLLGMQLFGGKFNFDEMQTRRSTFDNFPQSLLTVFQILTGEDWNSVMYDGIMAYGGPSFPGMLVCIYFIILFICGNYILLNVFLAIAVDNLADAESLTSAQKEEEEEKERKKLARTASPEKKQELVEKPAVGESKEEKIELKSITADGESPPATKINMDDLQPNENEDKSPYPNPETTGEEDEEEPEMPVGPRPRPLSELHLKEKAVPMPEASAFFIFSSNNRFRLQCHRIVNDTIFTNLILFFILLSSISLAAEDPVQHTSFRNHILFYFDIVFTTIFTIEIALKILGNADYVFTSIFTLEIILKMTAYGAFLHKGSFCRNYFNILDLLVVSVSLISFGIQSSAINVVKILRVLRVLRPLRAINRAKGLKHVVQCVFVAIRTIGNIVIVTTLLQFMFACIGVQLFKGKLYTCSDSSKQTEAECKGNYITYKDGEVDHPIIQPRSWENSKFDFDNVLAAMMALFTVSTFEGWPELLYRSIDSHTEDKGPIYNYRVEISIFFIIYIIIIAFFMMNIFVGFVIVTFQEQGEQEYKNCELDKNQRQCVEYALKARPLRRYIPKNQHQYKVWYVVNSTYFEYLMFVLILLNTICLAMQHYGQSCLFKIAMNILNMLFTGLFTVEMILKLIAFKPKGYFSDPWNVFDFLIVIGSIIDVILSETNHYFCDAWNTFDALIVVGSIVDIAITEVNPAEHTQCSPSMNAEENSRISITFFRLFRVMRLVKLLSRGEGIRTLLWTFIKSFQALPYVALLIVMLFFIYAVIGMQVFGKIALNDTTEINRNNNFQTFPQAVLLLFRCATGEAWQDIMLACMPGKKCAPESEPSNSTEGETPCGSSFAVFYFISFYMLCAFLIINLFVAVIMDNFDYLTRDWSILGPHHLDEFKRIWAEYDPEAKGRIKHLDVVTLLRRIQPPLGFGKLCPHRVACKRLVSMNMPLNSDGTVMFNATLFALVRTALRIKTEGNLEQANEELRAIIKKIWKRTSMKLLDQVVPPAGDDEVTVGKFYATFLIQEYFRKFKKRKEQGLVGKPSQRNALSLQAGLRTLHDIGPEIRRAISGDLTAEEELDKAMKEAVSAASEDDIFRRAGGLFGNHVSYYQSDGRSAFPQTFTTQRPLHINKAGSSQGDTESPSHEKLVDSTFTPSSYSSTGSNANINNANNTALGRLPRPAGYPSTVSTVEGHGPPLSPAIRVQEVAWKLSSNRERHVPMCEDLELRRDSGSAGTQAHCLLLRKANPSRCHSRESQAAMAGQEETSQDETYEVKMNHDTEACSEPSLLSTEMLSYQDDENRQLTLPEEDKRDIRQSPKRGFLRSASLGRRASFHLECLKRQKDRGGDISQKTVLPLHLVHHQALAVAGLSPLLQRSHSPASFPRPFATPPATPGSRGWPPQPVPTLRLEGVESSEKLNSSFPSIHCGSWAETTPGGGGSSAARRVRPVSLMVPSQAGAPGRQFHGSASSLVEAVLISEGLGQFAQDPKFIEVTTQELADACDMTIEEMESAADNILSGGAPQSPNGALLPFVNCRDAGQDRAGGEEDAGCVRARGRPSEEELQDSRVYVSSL

One may read the IC50 as the concentration that gives 50% inhibition. As usually defined, the AUC is the area under the concentration-time curve, a measure of exposure. One may read the bioavailability as the share of a dose that reaches the circulation, judged against a reference dose that is usually intravenous. For orientation: Cmax means the highest concentration seen after dosing. By Papp A→B is commonly meant how fast a substance crosses the layer from the apical side. The fraction unbound is free concentration divided by total concentration. As to `COc1nc(N(CC(C)(C)F)c2cc(Cl)c(F)cc2F)cnc1C(=O)[C@H]1C[C@@H]1C(=O)O` [AZD-9898], the IC50 at Cytochrome P450 1A2 and on Cytochrome P450 2C19 was above 30 µM each time. For the same compound, the results for the Activity entry (with Blood [1]; in [11]; with Blood [17]) were “Dose-dependent effect”, “Non-Toxic” and “Dose-dependent effect”, respectively. Further, in data set [2], the area under the curve (AUC) turned out to be 4500 µM·h. The bioavailability in [3] is 90%; in data set [8] it was 100%. In data set [4], this compound came in with a Cmax at […] of 349 µM. The “inhibition (INH)” value in data set [5] and in data set [6] was “Not Active” throughout. The fEC50 in the data set with Rattus norvegicus was found to be 34 nM. In addition, in data set [7], the Papp A→B was 61 ×10⁻⁶ cm/s. In addition, the Vd in [9] is 1 L/kg. In addition, the clearance in [10] is 1.8 mL/min/kg; in data set [18], 2.3 mL/min/kg. The inhibition entry in data set [12] is “inactive”. In addition, the inhibition entry in [13] and in [14] was “Active” in each case. In [15], the half-life is 6.1 h. This compound showed an unbound share (fraction unbound) in data set [16] of 0.025.
